Read-outs that look alike come from different tables or passages of the source.
Assays:
[1] = system: HCC1954 cells (with PI3Kα H1047R mutation); assay: In vitro inhibition of HCC1954 cell proliferation (CellTiter-Lumi); assay type: cell-based; details: HCC1954 cells, 144 h, CellTiter-Lumi
Protocol: Assay for In Vitro Inhibition of HCC1954 Cell Proliferation by Compounds of the Present Disclosure
The growth of the cells was evaluated, and the IC50 for the inhibition of cell growth by the compounds was calculated.

[2] = system: MCF-7 cells (with PI3Kα E545K mutation); assay: In vitro inhibition of MCF-7 cell proliferation (CellTiter-Lumi); assay type: cell-based
How it was run: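 MCF-7 (PI3Kα E545K) seeded at 2000 cells/well; serially diluted compounds added next day and exposed for 144 h. Cellular ATP read by CellTiter-Lumi luminescence; IC50 for growth inhibition calculated.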

[3] = Homo sapiens, HCC1954, 144 h, numeric values, read-out: Inhibitory activity against HCC1954 cells (IC50)
[4] = Homo sapiens, MCF7, 144 h, numeric values, read-out: Inhibitory activity against MCF-7 cells (IC50)
[5] = numeric values, read-out: Inhibitory activity against HCC1954 cells (IC50)
[6] = 144 h, numeric values, read-out: Inhibitory activity against MCF-7 cells (IC50)
[7] = Homo sapiens, HCC1954, 144 h, class symbols, read-out: Inhibitory activity against HCC1954 cells (IC50), class symbols
[8] = Homo sapiens, MCF7, 144 h, class symbols, read-out: Inhibitory activity against MCF-7 cells (IC50), class symbols

## C=CC(=O)Nc1ccc(N2CC[C@H](CN3CCN(c4ccc5c(c4)-c4nc(N6C(=O)OC[C@H]6C(F)F)cn4CCO5)CC3)C2)cc1 [Compound 20]
[1]; [3]
  IC50: 438 nM
[2]; [4]
  IC50: 69 nM

## CC(C)=CC(=O)CCC(=O)N1CCN(Cc2cc3nc(-c4cccc5[nH]ncc45)nc(N4CCOCC4)c3s2)CC1 [CNX1351]
[1]; [5]
  IC50: 1190 nM
[2]; [6]
  IC50: 290 nM

## CN(C1COC1)C(C)(C)C=C(C#N)C(=O)Nc1ccc(N2CC(N3CCN(c4ccc5c(c4)-c4nc(N6C(=O)OC[C@H]6C(F)F)cn4CCO5)CC3)C2)c(Cl)c1 [Compound 352]
[1]; [7]
  IC50: < 50 nM
[2]; [8]
  IC50: < 50 nM

## CN(C1COC1)C(C)(C)C=C(C#N)C(=O)Nc1ccc(N2CC(N3CCN(c4ccc5c(c4)-c4nc(N6C(=O)OC[C@H]6C(F)F)cn4CCO5)CC3)C2)c(F)c1 [Compound 220]
[1]; [7]
  IC50: < 50 nM
[2]; [8]
  IC50: < 50 nM

## Cc1nc(-c2cn3c(n2)-c2cc(N4CCN(C5CN(c6ccc(NC(=O)C(C#N)=CC(C)(C)C)cc6F)C5)CC4)ccc2OCC3)n(C(C)C)n1 [Compound 367]
[1]; [7]
  IC50: < 50 nM
[2]; [8]
  IC50: < 50 nM

## C=CC(=O)Nc1ccc(N2CCN(c3ccc4c(c3)-c3nc(N5C(=O)OC[C@H]5C(F)F)cn3CCO4)CC2)cc1 [Compound 174]
[1]; [3]
  IC50: 166 nM
[2]; [4]
  IC50: 26 nM

## C=CC(=O)N1CC(CN2CC(N3CCN(c4ccc5c(c4)-c4nc(N6C(=O)OC[C@H]6C(F)F)cn4CCO5)CC3)C2)C1 [Compound 91]
[1]; [3]
  IC50: 154 nM
[2]; [4]
  IC50: 11 nM

## CC(C)OC(=O)OCOP(=O)(OCNC(C)(C)C=C(C#N)C(=O)Nc1ccc(N2CC(N3CCN(c4ccc5c(c4)-c4nc(N6C(=O)OC[C@H]6C(F)F)cn4CCO5)CC3)C2)cc1)OCOC(=O)OC(C)C [Compound 334]
[1]; [7]
  IC50: < 50 nM
[2]; [8]
  IC50: < 50 nM

## N#CC(=CC1(N)CC1)C(=O)Nc1ccc(N2CC(N3CCN(c4ccc5c(c4)-c4nc(N6C(=O)OC[C@H]6C(F)F)cn4CCO5)CC3)C2)cc1 [Compound 213]
[1]; [7]
  IC50: < 50 nM
[2]; [8]
  IC50: < 50 nM

## C=CC(=O)Nc1ccc(N2CCC(C/C=C/c3ccc4c(c3)-c3nc(N5C(=O)OCC5C(F)F)cn3CCO4)CC2)cc1 (stereo not drawn) [Compound 210]
[1]; [7]
  IC50: 50 to 100 nM
[2]; [8]
  IC50: < 50 nM

## C=CC(=O)Nc1ccc(N2CC(N3CCN(c4ccc5c(c4)-c4nc(N6C(=O)OC[C@H]6C(F)F)cn4CCO5)CC3)C2)nc1C [Compound 216]
[1]; [7]
  IC50: < 50 nM
[2]; [8]
  IC50: < 50 nM

## CC(C)(C=C(C#N)C(=O)Nc1ccc(N2CC(N3CCN(c4ccc5c(c4)-c4nc(N6C(=O)OC[C@H]6C(F)F)cn4CCO5)CC3)C2)nc1)N1CCC1 [Compound 247]
[1]; [7]
  IC50: < 50 nM
[2]; [8]
  IC50: < 50 nM

## CC(C)(O)C=C(C#N)C(=O)Nc1ccc(N2CC(N3CCN(c4ccc5c(c4)-c4nc(N6C(=O)OC[C@H]6C(F)F)cn4CCO5)CC3)C2)cc1 [Compound 211]
[1]; [7]
  IC50: < 50 nM
[2]; [8]
  IC50: < 50 nM

## CC#CC(=O)Nc1ccc(N2CC(N3CCN(c4ccc5c(c4)-c4nc(N6C(=O)OC[C@H]6C(F)F)cn4CCO5)CC3)C2)c(F)c1 [Compound 149]
[1]; [3]
  IC50: 115 nM
[2]; [4]
  IC50: 16 nM

## C=CC(=O)N1CCC(N2CC(N3CCN(c4ccc5c(c4)-c4nc(N6C(=O)OC[C@H]6C(F)F)cn4CCO5)CC3)C2)CC1 [Compound 105]
[1]; [3]
  IC50: 620 nM
[2]; [4]
  IC50: 23 nM

## CC#CC(=O)Nc1ccc(N2CC(N3CCN(c4ccc5c(c4)-c4nc(N6C(=O)OC[C@H]6C(F)F)cn4CCO5)CC3)C2)cc1 [Compound 132]
[1]; [3]
  IC50: 45 nM
[2]; [4]
  IC50: 3.3 nM

## C=CC(=O)Nc1ccc(N2CCC(/C=C/c3ccc4c(c3)-c3nc(N5C(=O)OC[C@H]5C(F)F)cn3CCO4)CC2)cc1 [Compound 209]
[1]; [7]
  IC50: 50 to 100 nM
[2]; [8]
  IC50: < 50 nM

## C=CC(=O)Nc1ccc(N2CC3(CCN(c4ccc5c(c4)-c4nc(N6C(=O)OC[C@H]6C(F)F)cn4CCO5)C3)C2)cc1 [Compound 93]
[1]; [3]
  IC50: 551 nM
[2]; [4]
  IC50: 76 nM

## Cc1cc2c(cc1N1CCN(C3CN(c4ccc(NC(=O)C(C#N)=CC(C)(C)C)cc4)C3)CC1)-c1nc(N3C(=O)OC[C@H]3C(F)F)cn1CCO2 [Compound 320]
[1]; [7]
  IC50: < 50 nM
[2]; [8]
  IC50: < 50 nM

## C=CC(=O)Nc1ccc(N2CC(N3CCN(c4ccc5c(c4)-c4nc(N6C(=O)OC[C@H]6C(F)F)cn4CCO5)CC3)C2)nc1 [Compound 122]
[1]; [3]
  IC50: 7 nM
[2]; [4]
  IC50: 0.4 nM

## CC(C)C=C(C#N)C(=O)Nc1ccc(N2CC(N3CCN(c4ccc5c(c4)-c4nc(N6C(=O)OC[C@H]6C(F)F)cn4CCO5)CC3)C2)c(F)c1 [Compound 226]
[1]; [7]
  IC50: < 50 nM
[2]; [8]
  IC50: < 50 nM

## CC(C)(N)C=C(C#N)C(=O)Nc1ccc(N2CC(N3CCN(c4ccc5c(c4)-c4nc(N6C(=O)OC[C@H]6C(F)F)cn4CCO5)CC3)C2)c(Cl)c1 [Compound 351]
[1]; [7]
  IC50: < 50 nM
[2]; [8]
  IC50: < 50 nM

## C=CC(=O)Nc1ccc(N2CC(N3CCN(c4ccc5c(c4)-c4nc(N6C(=O)OC[C@H]6C(F)F)cn4CCO5)CC3)C2)nn1 [Compound 161]
[1]; [3]
  IC50: 2.9 nM
[2]; [4]
  IC50: 0.5 nM

## CC(C)(C)C=C(C#N)C(=O)Nc1cnc(N2CC(N3CCN(c4ccc5c(c4)-c4nc(N6C(=O)OC[C@H]6C(F)F)cn4CCO5)CC3)C2)nc1 [Compound 259]
[1]; [7]
  IC50: < 50 nM
[2]; [8]
  IC50: < 50 nM

## Cc1nc(NC(=O)N2CCC[C@H]2C(N)=O)sc1-c1ccnc(C(C)(C)C(F)(F)F)c1 [Alpelisib, reference compound]
[1]; [3]
  IC50: 1610 nM
[2]; [4]
  IC50: 216 nM

## C=CC(=O)N1CCC(C2CN(c3ccc(-c4ccc5c(c4)-c4nc(N6C(=O)OC[C@H]6C(F)F)cn4CCO5)cc3)C2)CC1 [Compound 198]
[1]; [7]
  IC50: 100 to 1000 nM
[2]; [8]
  IC50: 50 to 100 nM

## CNC(C)(C)C=C(C#N)C(=O)Nc1cnc(N2CC(N3CCN(c4ccc5c(c4)-c4nc(N6C(=O)OC[C@H]6C(F)F)cn4CCO5)CC3)C2)nc1 [Compound 261]
[1]; [7]
  IC50: < 50 nM
[2]; [8]
  IC50: < 50 nM

## C=CC(=O)Nc1ccc(N2CC(N3CCN(c4ccc5c(c4)-c4nc(N6C(=O)OC[C@H]6C(F)F)cn4CCO5)CC3)C2)cc1F [Compound 124]
[1]; [3]
  IC50: 9 nM
[2]; [4]
  IC50: 2.7 nM

## CC(C)(C=C(C#N)C(=O)Nc1ccc(N2CC(N3CCN(c4ccc5c(c4)-c4nc(N6C(=O)OC[C@H]6C(F)F)cn4CCO5)CC3)C2)cc1)NC(=O)OC(C)(C)C [Compound 324B]
[1]; [5]
  IC50: 6.2 nM
[2]; [6]
  IC50: 2.6 nM

## COc1cc2c(cc1N1CCN(C3CN(c4ccc(NC(=O)C(C#N)=CC(C)(C)C)cc4)C3)CC1)-c1nc(N3C(=O)OC[C@H]3C(F)F)cn1CCO2 [Compound 318]
[1]; [7]
  IC50: < 50 nM
[2]; [8]
  IC50: < 50 nM

## CC(C)(C=C(C#N)C(=O)Nc1ccc(N2CC(N3CCN(c4ccc5c(c4)-c4nc(N6C(=O)OC[C@H]6C(F)F)cn4CCO5)CC3)C2)cc1)NS(C)(=O)=O [Compound 327]
[1]; [7]
  IC50: < 50 nM
[2]; [8]
  IC50: < 50 nM

## CC(C)(C=C(C#N)C(=O)Nc1ccc(N2CC(N3CCN(c4ccc5c(c4)-c4nc(N6C(=O)OC[C@H]6C(F)F)cn4CCO5)CC3)C2)nc1)N1CC2(COC2)C1 [Compound 246]
[1]; [7]
  IC50: < 50 nM
[2]; [8]
  IC50: < 50 nM

## CN(C)C/C=C/C(=O)Nc1ccc(N2CC(N3CCN(c4ccc5c(c4)-c4nc(N6C(=O)OC[C@H]6C(F)F)cn4CCO5)CC3)C2)nn1 [Compound 287]
[1]; [7]
  IC50: < 50 nM
[2]; [8]
  IC50: < 50 nM

## C=CC(=O)Nc1ccc(C2CN(CC#Cc3ccc4c(c3)-c3nc(N5C(=O)OC[C@H]5C(F)F)cn3CCO4)C2)cc1 [Compound 201]
[1]; [7]
  IC50: 50 to 100 nM
[2]; [8]
  IC50: < 50 nM

## CC(=O)NC(C)(C)C=C(C#N)C(=O)Nc1ccc(N2CC(N3CCN(c4ccc5c(c4)-c4nc(N6C(=O)OC[C@H]6C(F)F)cn4CCO5)CC3)C2)c(F)c1 [Compound 347]
[1]; [7]
  IC50: < 50 nM
[2]; [8]
  IC50: < 50 nM

## C=CC(=O)Nc1ccc(N2CCC3(CC2)CCN(c2ccc4c(c2)-c2nc(N5C(=O)OC[C@H]5C(F)F)cn2CCO4)CC3)cc1 [Compound 183]
[1]; [3]
  IC50: 219 nM
[2]; [4]
  IC50: 21 nM

## COCCNC(C)(C)C=C(C#N)C(=O)Nc1ccc(N2CC(N3CCN(c4ccc5c(c4)-c4nc(N6C(=O)OC[C@H]6C(F)F)cn4CCO5)CC3)C2)cc1 [Compound 218]
[1]; [7]
  IC50: < 50 nM
[2]; [8]
  IC50: < 50 nM

## Cc1nc(-c2cn3c(n2)-c2cc(N4CCN(C5CN(c6ccc(NC(=O)C(C#N)=CC(C)(C)C)cc6Cl)C5)CC4)ccc2OCC3)n(C(C)C)n1 [Compound 369]
[1]; [7]
  IC50: < 50 nM
[2]; [8]
  IC50: < 50 nM

## N#CC(=CC1CCCN1)C(=O)Nc1ccc(N2CC(N3CCN(c4ccc5c(c4)-c4nc(N6C(=O)OC[C@H]6C(F)F)cn4CCO5)CC3)C2)c(F)c1 (stereo partly drawn) [Compound 234]
[1]; [7]
  IC50: < 50 nM
[2]; [8]
  IC50: < 50 nM

From patent publication US20260193268A1, “TRICYCLIC PI3Ka INHIBITOR, PREPARATION METHOD THEREFOR, AND PHARMACEUTICAL USE THEREOF” (WIGEN BIOMEDICINE TECHNOLOGY (SHANGHAI) CO., LTD., priority 2022, published 2026)
